Among the data in PubChem BioAssay AID1745844 (Carcinogenic Potency Database (CPDB), 2022) are TD50 and carcinogen call values, retold here.

Each structure is given as a SMILES string. Where “and” joins values, the source holds several entries; their conditions need not be identical. Identical values can stand only once. Calls of active or inactive are those of the source. No rule for the calls is given here.

The series relates to rodent lifetime carcinogenesis bioassay, tumor incidence TD50. Put plainly: chronic cancer bioassays in animals – CPDB, compiled studies (AID 1745844).

For the compound `Cn1cnc([N+](=O)[O-])c1Sc1ncnc2nc[nH]c12`, the TD50 runs as follows: (monkey, strain Rhesus [Macaca mulatta], both sexes, in feed, site: any site (literature study), lesion: benign tumor, dosed 774 weeks, study length 851 weeks) 4.89 mg/kg/day; (monkey, strain Rhesus [Macaca mulatta], both sexes, in feed, site: any site (literature study), lesion: several types, types named in the paper, dosed 774 weeks, study length 851 weeks) 3.68 mg/kg/day; (monkey, strain Rhesus [Macaca mulatta], both sexes, in feed, site: leptomeninges, lesion: lymphocytic lymphoma, dosed 774 weeks, study length 851 weeks) 6.79 mg/kg/day; (monkey, strain Rhesus [Macaca mulatta], both sexes, in feed, site: salivary gland, lesion: adenoma, dosed 774 weeks, study length 851 weeks) 2.18 mg/kg/day; (monkey, strain Rhesus [Macaca mulatta], both sexes, in feed, site: uterus, lesion: leiomyoma, dosed 774 weeks, study length 851 weeks) 2.74 mg/kg/day; (mouse, strain B6C3F1, females, in feed, site: all sites, lesion: systemic and localized lymphoma, dosed 94 weeks, study length 94 weeks) 7.59 mg/kg/day. In addition, the TD50 reads like this: (mouse, strain B6C3F1, females, in feed, site: all sites, lesion: systemic and localized lymphoma, dosed 100 weeks, study length 100 weeks) 43.8 mg/kg/day; (mouse, strain B6C3F1, females, in feed, site: liver, lesion: hepatocellular adenoma, dosed 100 weeks, study length 100 weeks) 67.5 mg/kg/day; (mouse, strain B6C3F1, females, in feed, site: lung, lesion: one or several types, types not named, dosed 94 weeks, study length 94 weeks) 4.89 mg/kg/day; (mouse, strain B6C3F1, females, in feed, site: uterus, lesion: hemangioendothelioma, dosed 100 weeks, study length 100 weeks) 8.92 mg/kg/day; (mouse, strain B6C3F1, males, in feed, site: all sites, lesion: systemic and localized lymphoma, dosed 100 weeks, study length 100 weeks) 9.66 mg/kg/day; (mouse, strain B6C3F1, males, in feed, site: liver, lesion: hepatocellular carcinoma, dosed 100 weeks, study length 100 weeks) 55.9 mg/kg/day. In addition, the TD50 is 55.9 mg/kg/day (mouse, strain B6C3F1, males, in feed, site: lung, lesion: carcinoma, dosed 100 weeks, study length 100 weeks) and 10.1 mg/kg/day (rat, strain Fischer 344, females, in feed, site: ear duct, lesion: squamous-cell carcinoma, dosed 52 weeks, study length 52 weeks). Moreover, the carcinogen call (rat, strain Fischer 344, females, in feed, site: liver, lesion: one or several types, types not named, dosed 52 weeks, study length 52 weeks) is “negative (inactive)”.
Regarding `CCOC(=O)/C=C\C(=O)OCC`, the carcinogen call is “negative (inactive)” (rat, strain F344/DuCrj, males, in feed, site: forestomach, lesion: one or several types, types not named, dosed 51 weeks, study length 52 weeks) and “negative (inactive)” (rat, strain F344/DuCrj, males, in feed, site: stomach, glandular, lesion: one or several types, types not named, dosed 51 weeks, study length 52 weeks). The compound further gave a TD50 (rat, strain F344/DuCrj, males, in feed, site: forestomach, lesion: squamous-cell papilloma, dosed 104 weeks, study length 104 weeks) of 1070 mg/kg/day.
For the compound `C=Cc1cccc[n+]1[O-]`, the TD50 was 1690 mg/kg/day (inactive) (mouse, strain ICI, females, i.v., site: any site (literature study), lesion: benign tumor, dosed 75 weeks, study length 104 weeks) and 175 mg/kg/day (inactive) (rat, strain Wistar, females, i.v., site: any site (literature study), lesion: malignant tumor, dosed 75 weeks, study length 104 weeks). Further, the carcinogen call runs as follows: (mouse, strain ICI, females, i.v., site: any site (literature study), lesion: malignant tumor, dosed 75 weeks, study length 104 weeks) “negative (inactive)”; (mouse, strain ICI, females, i.v., site: lung, lesion: adenoma, dosed 75 weeks, study length 104 weeks) “negative (inactive)”; (rat, strain Wistar, females, i.v., site: any site (literature study), lesion: benign tumor, dosed 75 weeks, study length 104 weeks) “negative (inactive)”.
`CC(O)CN(CC(O)CO)N=O` (stereo not drawn): the TD50 (hamster, strain Syrian Golden, females, by gavage, site: forestomach, lesion: several types, types named in the paper, dosed 41 weeks, study length 75 weeks) is 1.59 mg/kg/day; the TD50 (hamster, strain Syrian Golden, females, by gavage, site: forestomach, lesion: squamous-cell papilloma, dosed 41 weeks, study length 75 weeks) was 1.59 mg/kg/day; the TD50 (hamster, strain Syrian Golden, females, by gavage, site: liver, lesion: cholangioadenoma, dosed 41 weeks, study length 75 weeks) was found to be 32.6 mg/kg/day; the TD50 (rat, strain Fischer 344, females, in drinking water, site: esophagus, lesion: carcinoma, dosed 37 weeks, study length 85 weeks) was found to be 0.117 mg/kg/day; the TD50 (rat, strain Fischer 344, females, in drinking water, site: esophagus, lesion: several types, types named in the paper, dosed 37 weeks, study length 85 weeks) is 0.0535 mg/kg/day; the TD50 (rat, strain Fischer 344, females, in drinking water, site: forestomach, lesion: several types, types named in the paper, dosed 37 weeks, study length 85 weeks) is 0.178 mg/kg/day. The TD50 runs as follows: (rat, strain Fischer 344, females, in drinking water, site: liver, lesion: hepatocellular carcinoma, dosed 37 weeks, study length 85 weeks) 2.4 mg/kg/day; (rat, strain Fischer 344, females, in drinking water, site: tongue, lesion: several types, types named in the paper, dosed 37 weeks, study length 85 weeks) 0.0888 mg/kg/day; (rat, strain Fischer 344, females, in drinking water, site: tongue, lesion: squamous-cell carcinoma, dosed 37 weeks, study length 85 weeks) 0.241 mg/kg/day.
Regarding `CCS(=O)(=O)c1ccc(S(N)(=O)=O)c2ccccc12`, the TD50 is 53.4 mg/kg/day (mouse, strain A x IF, females, in feed, site: lung, lesion: adenoma, dosed 100 weeks, study length 100 weeks); 34.2 mg/kg/day (mouse, strain A x IF, females, in feed, site: urinary bladder, lesion: carcinoma, dosed 100 weeks, study length 100 weeks); 15.3 mg/kg/day (mouse, strain IF x C57, females, in feed, site: urinary bladder, lesion: carcinoma, dosed 92 weeks, study length 92 weeks).
For the compound `CC(C)(C)NC(=O)[C@H]1CC[C@H]2[C@@H]3CC[C@H]4NC(=O)C=C[C@]4(C)[C@H]3CC[C@]12C`, where the note is “mouse, strain Charles River CD1, males, by gavage, site: testis, lesion: Leydig-cell adenoma, dosed 83 weeks, study length 83 weeks”, the TD50 was 326 mg/kg/day.
`N[C@@H](CC(=O)O)C(=O)O`: the TD50 runs as follows: (rat, strain F344/DuCrj, females, in drinking water, site: any site (literature study), lesion: several types, types named in the paper, dosed 100 weeks, study length 100 weeks) 8340 mg/kg/day (inactive); (rat, strain F344/DuCrj, males, in drinking water, site: any site (literature study), lesion: several types, types named in the paper, dosed 100 weeks, study length 100 weeks) 2720 mg/kg/day (inactive). Moreover, the carcinogen call (rat, strain F344/DuCrj, females, in drinking water, site: liver, lesion: one or several types, types not named, dosed 100 weeks, study length 100 weeks) is “negative (inactive)” and the carcinogen call (rat, strain F344/DuCrj, males, in drinking water, site: liver, lesion: one or several types, types not named, dosed 100 weeks, study length 100 weeks) is “negative (inactive)”.
For `Nc1c(Cl)cc(Cl)cc1Cl`, the TD50 by setting is: (mouse, strain CD-1 HaM/ICR, females, in feed, site: any site (literature study), lesion: several types, types named in the paper, dosed 68 weeks, study length 77 weeks) 914 mg/kg/day (inactive); (mouse, strain CD-1 HaM/ICR, females, in feed, site: liver, lesion: several types, types named in the paper, dosed 68 weeks, study length 77 weeks) 927 mg/kg/day (inactive); (mouse, strain CD-1 HaM/ICR, females, in feed, site: lung, lesion: several types, types named in the paper, dosed 68 weeks, study length 77 weeks) 1370 mg/kg/day (inactive); (mouse, strain CD-1 HaM/ICR, males, in feed, site: all sites, lesion: all vascular tumors, dosed 68 weeks, study length 77 weeks) 273 mg/kg/day and 259 mg/kg/day; (mouse, strain CD-1 HaM/ICR, males, in feed, site: any site (literature study), lesion: several types, types named in the paper, dosed 68 weeks, study length 77 weeks) 206 mg/kg/day; (mouse, strain CD-1 HaM/ICR, males, in feed, site: liver, lesion: hepatoma, dosed 68 weeks, study length 77 weeks) 560 mg/kg/day. For the same compound, the TD50 by setting is: (mouse, strain CD-1 HaM/ICR, males, in feed, site: liver, lesion: several types, types named in the paper, dosed 68 weeks, study length 77 weeks) 452 mg/kg/day; (mouse, strain CD-1 HaM/ICR, males, in feed, site: lung, lesion: several types, types named in the paper, dosed 68 weeks, study length 77 weeks) 385 mg/kg/day (inactive); (rat, strain Charles River CD (Sprague-Dawley), males, in feed, site: any site (literature study), lesion: several types, types named in the paper, dosed 77 weeks, study length 116 weeks) 45.9 mg/kg/day (inactive). Besides, where the note is “rat, strain Charles River CD (Sprague-Dawley), males, in feed, site: liver, lesion: several types, types named in the paper, dosed 77 weeks, study length 116 weeks”, the carcinogen call was “negative (inactive)”.
With `CCOC(=O)C(O)(c1ccc(Cl)cc1)c1ccc(Cl)cc1`, the TD50 is 621 mg/kg/day (mouse, strain B6AKF1, females, oral dosing, site: any site (literature study), lesion: several types, types named in the paper, dosed 82 weeks, study length 82 weeks); 621 mg/kg/day (mouse, strain B6AKF1, females, oral dosing, site: lung, lesion: adenoma, dosed 82 weeks, study length 82 weeks); 72.8 mg/kg/day (mouse, strain B6AKF1, males, oral dosing, site: any site (literature study), lesion: several types, types named in the paper, dosed 82 weeks, study length 82 weeks); 69.8 mg/kg/day (mouse, strain B6AKF1, males, oral dosing, site: liver, lesion: hepatoma, dosed 82 weeks, study length 82 weeks); 3930 mg/kg/day (mouse, strain B6C3F1, females, in feed, site: any site (literature study), lesion: several types, types named in the paper, dosed 78 weeks, study length 90 weeks); 848 mg/kg/day (mouse, strain B6C3F1, females, in feed, site: liver, lesion: hepatocellular adenoma + hepatocellular carcinoma + neoplastic nodule, dosed 78 weeks, study length 90 weeks). Moreover, the TD50 is 848 mg/kg/day (mouse, strain B6C3F1, females, in feed, site: liver, lesion: hepatocellular carcinoma, dosed 78 weeks, study length 90 weeks); 302 mg/kg/day (mouse, strain B6C3F1, females, oral dosing, site: any site (literature study), lesion: several types, types named in the paper, dosed 82 weeks, study length 82 weeks); 621 mg/kg/day (mouse, strain B6C3F1, females, oral dosing, site: lung, lesion: adenoma, dosed 82 weeks, study length 82 weeks); 256 mg/kg/day (mouse, strain B6C3F1, males, in feed, site: any site (literature study), lesion: several types, types named in the paper, dosed 78 weeks, study length 90 weeks); 235 mg/kg/day (mouse, strain B6C3F1, males, in feed, site: liver, lesion: hepatocellular adenoma + hepatocellular carcinoma + neoplastic nodule, dosed 78 weeks, study length 90 weeks); 235 mg/kg/day (mouse, strain B6C3F1, males, in feed, site: liver, lesion: hepatocellular carcinoma, dosed 78 weeks, study length 90 weeks). Moreover, the TD50 was 31.7 mg/kg/day (mouse, strain B6C3F1, males, oral dosing, site: any site (literature study), lesion: several types, types named in the paper, dosed 82 weeks, study length 82 weeks); 43.8 mg/kg/day (mouse, strain B6C3F1, males, oral dosing, site: liver, lesion: hepatoma, dosed 82 weeks, study length 82 weeks); 490 mg/kg/day (inactive) (rat, strain Osborne-Mendel, females, in feed, site: adrenal gland, lesion: cortical adenoma, dosed 78 weeks, study length 110 weeks); 186 mg/kg/day (inactive) (rat, strain Osborne-Mendel, males, in feed, site: adrenal gland, lesion: cortical adenoma, dosed 78 weeks, study length 110 weeks); 1600 mg/kg/day (rat, strain Osborne-Mendel, males, in feed, site: liver, lesion: hepatocellular adenoma + hepatocellular carcinoma + neoplastic nodule, dosed 78 weeks, study length 110 weeks). Where the note is “rat, strain Carworth Farms, females, in feed, site: mammary gland, lesion: adenofibroma, dosed 104 weeks, study length 104 weeks”, the carcinogen call is “negative (inactive)”.

The term TD50 denotes the 50% point of the dose-response relation for the toxic effect studied.
